In article PMC10799935, “Discovery of a peripheral 5HT2A antagonist as a clinical candidate for metabolic dysfunction-associated steatohepatitis” (Nature Communications, 2024):
pIC50: −log10 of the molar value. Where “and” joins values, the source holds several entries; their conditions need not be identical. Equal entries are not always repeated.

How the values were obtained:
[1] = target: 5HT2C (h) (Homo sapiens, UniProt P28335); assay: 5HT subtype antagonism assay (Eurofins Cerep): 5HT2C; assay type: cell-based
[2] = Hepatocyte stability test, human; assay type: in vitro ADME; conditions: both sexes, cryopreserved hepatocytes, pH 7.4, read-out: Hepatocyte stability (% remaining after 3 h)
Protocol: (§1) Hepatocyte incubations for the test compound (10 μM final concentration, n = 2 per each time point) were carried out in mouse, rat, dog, monkey and human cryopreserved hepatocytes, resuspended at a density of 0.5 million cells/ml of modified Krebs-Henseleit buffer (KHB). The information regarding the hepatocytes used in the experiment is as follows: liverPool® 10-donor mixed gender human (BioIVT, Cat.No. X008001, lot EAV), male cynomolgus monkey (BioIVT, Cat.No. M00305, lot COJ), male Beagle dog (BioIVT, Cat.No. M00205, lot USY), male Sprague Dawley rat (BioIVT, Cat.No. M00005, lot TQE) and male CD1 mouse (BioIVT, Cat.No.005052, lot LFF). In addition, the compound was also incubated with blank KHB. The final concentration of solvent (DMSO) was 0.1% of the final volume. The incubations were performed for 3 hours at 37°C and pH 7.4. Reactions were terminated at 0 and 180 minutes by the addition of 3 volumes of stop solution (acetonitrile/methanol (2:1, v/v) containing internal standard–diclofenac at 100 ng/ml). Samples (compound spiked buffer and compound spiked hepatocytes, as well as blank samples, i.e. hepatocytes with the same DMSO%) were then centrifuged and aliquots were transferred to 96-deep micronic tubes and frozen at -80 °C until LC-MS/MS analysis. […]

[3] = Hepatocyte stability test, mouse; assay type: in vitro ADME; conditions: male, CD1, cryopreserved hepatocytes, pH 7.4, read-out: Hepatocyte stability (% remaining after 3 h)
Protocol: as §1

[4] = test system: lipogenesis-related genes; assay: DIO mice: qRT-PCR of lipogenesis-related genes in liver; assay type: in vivo, mouse; conditions: for Fasn gene expression, Predicted (LS) mean diff. / Htr2a gene expression, Predicted (LS) mean diff. / Pparγ gene expression, Predicted (LS) mean diff. / Srebp1c gene expression, Predicted (LS) mean diff.: Tukey's multiple comparisons test; for Fasn gene expression, Predicted (LS) mean / Htr2a gene expression, Predicted (LS) mean / Pparγ gene expression, Predicted (LS) mean / Srebp1c gene expression, Predicted (LS) mean: vehicle = 1
Protocol: Total RNA extractions from harvested tissues were performed using TRIzol according to the manufacturer’s protocol. After TURBO DNase (Invitrogen) treatment, 2 μg of total RNA was used to generate complementary DNA with a High-Capacity cDNA Reverse Transcription Kit (Thermo Fisher Scientific). Quantitative RT-PCR was performed with Fast SYBR Green Master Mix (Thermo Fisher Scientific) and a Viia 7 Real-time PCR System (Thermo Fisher Scientific) according to the manufacturer’s instructions. Gene expression was relatively quantified based on the delta-delta Ct (threshold cycle) method with the beta-actin gene as a reference gene. The sequence of primers can be found in the Supporting Information (Supplementary Table 2).

[5] = test system: TNF-α; assay: CDAHFD mice: TNF-α immunohistochemical staining; assay type: in vivo, mouse; parameters: TNF-α immunohistochemical staining (TNF-a area), individual mouse / TNF-α immunohistochemical staining (TNF-a area), Average: unit not given here; conditions: for TNF-α immunohistochemical staining (TNF-a area), Average / TNF-α immunohistochemical staining (TNF-a area), individual mouse: CDAHFD mice; for TNF-α immunohistochemical staining (TNF-a area), Average: group average n=5, CDAHFD+Vehicle 9.246, Vehicle 2.978; for TNF-α immunohistochemical staining (TNF-a area), individual mouse: individual animals No. 1-5 (Fig.4g)
From the text: C57BL/6 J male mice were purchased from the Japan SLC. Inc (Hamamatsu, Japan). Mice (5 weeks old) were fed Teklad Certitied Irradiated Global 18% protein rodent diet purchased from Dooyeol Biotech Co. Ltd (Seoul, South Korea) during the acclimation period. The liver fibrosis/inflammation-induced groups were CDAHFD-fed (A06071302, Research diet). […] All animal experiments complied with the relevant ethical regulations.
Mouse liver tissues were fixed in 4% formalin solution (Sigma–Aldrich, St. Louis, MO, USA) and embedded in paraffin. 4-μm-thick liver sections were deparaffinized in xylene, and rehydrated through descending grades of ethanol. To evaluate liver fibrosis, sections were stained with Sirius red solution and subjected to immunohistochemical staining. Tissue sections, after deparaffinization, underwent a 16-hour incubation in a solution containing 0.1% Direct Red 80 (365548, Sigma-Aldrich) dissolved in Picric acid (P-201, Spectrum Chemical, CA, USA) for Sirius red staining. The sections were briefly immersed in a 0.01 N HCl solution (1129, Ducksan, Republic of Korea) for 2 min. and then rinsed with distilled water for destaining. Subsequently, the sections underwent dehydration through […] grades of ethanol. Immunohistochemical staining was performed using the Polyview Plus HRP-DAB (anti-Rabbit) Kit (ENZ-KIT159-0150, ENZO Life Science, NY, USA) following the manufacturers’ instructions. Deparaffinized sections were boiled in IHC-TekTM Epitope Retrieval solution (IW-1100, IHCWORLD, MD, USA) for 45 min., cooled for 1 h, incubated in a 3% H2O2 solution (69355-0350, JUNSEI, Japan) for 15 min., washed, and then incubated overnight with primary antibodies (α-SMA, ab5694, Abcam, 1:500 dilution; TNF-α, ab6671, Abcam, 1:100 dilution and IL-1β, ab9722, Abcam, 1:100 dilution). Subsequently, the sections were treated with Polyview Plus HRP for 2 h and developed with DAB chromogen/substrate. Stained […] sections were confirmed by light microscopy (Olympus BX53 upright microscope, Tokyo, Japan). The degree of hepatic fibrosis and immunohistochemical staining was quantified by morphometric analysis of stained liver sections using NIH ImageJ software.

[6] = Phase 1 clinical trial, SAD (single ascending dose) study; conditions: human, in vivo
[7] = in vitro; conditions: mouse, plasma
[8] = in vitro; conditions: rat, plasma
[9] = target: CYP1A2 (Homo sapiens, UniProt P05177); assay: in vitro
CYP1A2, sequence (P05177 whole entry): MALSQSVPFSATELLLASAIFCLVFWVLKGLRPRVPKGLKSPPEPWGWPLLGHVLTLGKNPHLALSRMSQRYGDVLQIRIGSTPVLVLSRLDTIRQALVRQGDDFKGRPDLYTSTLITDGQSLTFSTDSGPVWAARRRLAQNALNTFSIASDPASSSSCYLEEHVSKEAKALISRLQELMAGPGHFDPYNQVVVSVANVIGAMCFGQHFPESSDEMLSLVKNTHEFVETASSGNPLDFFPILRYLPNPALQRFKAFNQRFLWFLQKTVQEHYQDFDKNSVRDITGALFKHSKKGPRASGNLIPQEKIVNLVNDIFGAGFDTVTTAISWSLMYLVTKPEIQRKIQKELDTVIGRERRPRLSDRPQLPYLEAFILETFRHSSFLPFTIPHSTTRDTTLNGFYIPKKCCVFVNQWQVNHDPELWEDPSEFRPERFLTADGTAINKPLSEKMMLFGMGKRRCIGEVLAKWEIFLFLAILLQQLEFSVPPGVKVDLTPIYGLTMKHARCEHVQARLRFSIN

5HT2C (h), sequence (P28335 33-458): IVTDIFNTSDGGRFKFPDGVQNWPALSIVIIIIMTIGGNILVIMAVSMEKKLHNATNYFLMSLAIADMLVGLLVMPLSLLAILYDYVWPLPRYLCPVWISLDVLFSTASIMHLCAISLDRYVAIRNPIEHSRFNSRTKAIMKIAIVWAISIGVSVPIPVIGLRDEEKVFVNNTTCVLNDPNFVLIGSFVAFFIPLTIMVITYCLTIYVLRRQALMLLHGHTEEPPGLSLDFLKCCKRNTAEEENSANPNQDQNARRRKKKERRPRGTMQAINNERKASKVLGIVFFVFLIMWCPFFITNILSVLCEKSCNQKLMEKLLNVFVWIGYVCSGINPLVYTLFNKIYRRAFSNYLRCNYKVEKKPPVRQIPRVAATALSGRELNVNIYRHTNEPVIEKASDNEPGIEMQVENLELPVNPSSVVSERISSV

## Cc1nc2n(c(=O)c1CCN1CCC(=C3c4ccc(Cl)cc4CCc4cccnc43)CC1)CCCC2O (stereo not drawn) [Compound 11c]
[1]; concentration not given
  Selectivity 2 C: % inhibition: 103%
[1]; read-out: Selectivity 2 C: IC50
  pIC50: 6.77
[2]
  remaining at 3 h, 10 μM: 94%
[3]
  remaining at 3 h, 10 μM: 75%
[4]; 11c 5mpk vs. 11c 10mpk
  Fasn gene expression, Predicted (LS) mean diff.: 0.1848
  Htr2a gene expression, Predicted (LS) mean diff.: 0.09643
  Pparγ gene expression, Predicted (LS) mean diff.: -0.1385
  Srebp1c gene expression, Predicted (LS) mean diff.: 0.2716
[4]; 11c 5mpk
  Fasn gene expression, Predicted (LS) mean: 0.7446
  Htr2a gene expression, Predicted (LS) mean: 0.5102
  Pparγ gene expression, Predicted (LS) mean: 0.8935
  Srebp1c gene expression, Predicted (LS) mean: 0.7676
[4]; 11c 10mpk
  Fasn gene expression, Predicted (LS) mean: 0.5598
  Htr2a gene expression, Predicted (LS) mean: 0.4138
  Pparγ gene expression, Predicted (LS) mean: 1.032
  Srebp1c gene expression, Predicted (LS) mean: 0.496
[4]; DIO mice, 10mpk
  expression of Fasn: decreased
  expression of Srebp1c: reduced
[4]; DIO mice, liver, vs vehicle
  expression of lipogenesis-related genes: reduced
[4]; Vehicle vs. 11c 5mpk
  Fasn gene expression, Predicted (LS) mean diff.: 0.2554
  Htr2a gene expression, Predicted (LS) mean diff.: 0.4898
  Pparγ gene expression, Predicted (LS) mean diff.: 0.1065
  Srebp1c gene expression, Predicted (LS) mean diff.: 0.2324
[4]; Vehicle vs. 11c 10mpk
  Fasn gene expression, Predicted (LS) mean diff.: 0.4402
  Htr2a gene expression, Predicted (LS) mean diff.: 0.5862
  Pparγ gene expression, Predicted (LS) mean diff.: -0.03198
  Srebp1c gene expression, Predicted (LS) mean diff.: 0.504
[5]; 11c 5 mpk
  TNF-α immunohistochemical staining (TNF-a area), Average: 4.057
  TNF-α immunohistochemical staining (TNF-a area), individual mouse: 3.240 and 5.741 and 5.588 and 3.146 and 2.573
[5]; 11c 10mpk
  TNF-α immunohistochemical staining (TNF-a area), Average: 5.049
  TNF-α immunohistochemical staining (TNF-a area), individual mouse: 7.848 and 3.111 and 8.161 and 2.686 and 3.441
[5]; CDAHFD-fed 11c vs CDAHFD-fed vehicle group
  TNF-α expression (immunohistochemical staining): significant decrease
[6]
  half-life: > 10 h
[7]
  remaining at 4 h: > 99.9%
[8]
  remaining at 4 h: > 99.9%
[9]
  inhibition at 10 µM: < 1%
